# Measured values: patent US10080761B2, “Method for treating recurring skin and mucous membrane diseases caused by HSV-1 and HSV-2” (priority 2013, dated 2018)
# Test system: HSV-1 or HSV-2 infection
# Experiment: Treatment of a herpes relapse in patients with medium or severe recurring form (Example 1)
# Format: in vivo
# Settings: many years of earlier treatment, cream and pills
smiles,measurement,value
Nc1nc2c(ncn2COCCO)c(=O)[nH]1 [Aciclovir],reduction of the number of relapses by previously used preparations,did not reduce the number of relapses
